Source: ChEMBL document CHEMBL1140081 (J Med Chem, 2008)

Experiments:
[1] = target: Human immunodeficiency virus type 1 integrase (Human immunodeficiency virus 1, UniProt Q7ZJM1); experiment: Inhibition of HIV1 recombinant integrase strand transfer activity
[2] = system: Human immunodeficiency virus 1; experiment: Antiviral activity against HIV1 3B in human MT4 cells in presence of 50% normal human serum; type: functional; settings: Human immunodeficiency virus 1, 3B, MT4; read-out: CIC95
[3] = system: Human immunodeficiency virus 1; experiment: Antiviral activity against HIV1 3B in human MT4 cells in presence of 10% heat-inactivated fetal bovine serum; settings: Human immunodeficiency virus 1, 3B, read-out: CIC95
[4] = Cmax in po dosed Sprague-Dawley rat; type: ADME, organism-based; design: route oral; settings: in vivo
[5] = AUC in Sprague-Dawley rat at 3 mg/kg, po; type: ADME, organism-based; design: dose 3 mg/kg, route oral; settings: plasma
[6] = Protein binding in Sprague-Dawley rat plasma; type: ADME, cell-free; settings: read-out: PPB (converted)
[7] = Protein binding in dog plasma; type: ADME, cell-free, Canis lupus familiaris; settings: read-out: PPB (converted)
[8] = Protein binding in rhesus monkey plasma; type: ADME, cell-free, Macaca mulatta; settings: read-out: PPB (converted)
[9] = Protein binding in human plasma; type: ADME, cell-free; settings: read-out: PPB (converted)
[10] = system: Human immunodeficiency virus 1; experiment: Antiviral activity against HIV1 with integrase T66I/M154 mutation by single cycle infectivity assay in presence of 10%FBS; type: functional
[11] = system: Human immunodeficiency virus 1; experiment: Antiviral activity against HIV1 with integrase T66I/S153Y mutation by single cycle infectivity assay in presence of 10%FBS; type: functional
[12] = system: Human immunodeficiency virus 1; experiment: Antiviral activity against HIV1 with integrase N155S mutation by single cycle infectivity assay in presence of 10%FBS; type: functional
[13] = system: Human immunodeficiency virus 1; experiment: Antiviral activity against HIV1 with integrase T125K/F121Y mutation by single cycle infectivity assay in presence of 10%FBS; type: functional
[14] = system: Human immunodeficiency virus 1; experiment: Antiviral activity against HIV1 with integrase T66I/L74M/V151I mutation by single cycle infectivity assay in presence of 10%FBS; type: functional

Sequence of Human immunodeficiency virus type 1 integrase (Q7ZJM1 whole entry): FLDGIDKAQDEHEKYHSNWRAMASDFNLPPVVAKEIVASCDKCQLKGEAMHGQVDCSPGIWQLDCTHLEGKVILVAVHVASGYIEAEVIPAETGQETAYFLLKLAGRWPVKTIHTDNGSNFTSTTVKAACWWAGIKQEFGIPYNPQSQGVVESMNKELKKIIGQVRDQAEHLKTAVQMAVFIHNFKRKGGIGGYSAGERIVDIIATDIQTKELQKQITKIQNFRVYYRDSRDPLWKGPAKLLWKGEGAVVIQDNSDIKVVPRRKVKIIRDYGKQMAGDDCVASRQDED

| SMILES | IC50 [1] [nM] | IC95 [2] [µM] | IC95 [3] [µM] | further results |
| --- | --- | --- | --- | --- |
| CN(C)C(=O)C(=O)NC(C)(C)c1nc(C(=O)NCc2ccc(F)c(Cl)c2)c(O)c(=O)n1C | 9 | 0.13 | 0.031 |  |
| Cc1nnc(C(=O)NC(C)(C)c2nc(C(=O)NCc3ccc(F)cc3)c([O-])c(=O)n2C)o1.[Na+] |  |  |  | Cmax [4]: 1000 nM; AUC [5]: 1.4 µM·h; fraction unbound [6]: 0.74; fraction unbound [7]: 0.71; fraction unbound [8]: 0.85; fraction unbound [9]: 0.83 |
| CN(C)C1(c2nc(C(=O)NCc3ccc(F)cc3)c(O)c(=O)n2C)CCOCC1 | 2 | 1 | 0.25 |  |
| O=C(NCc1ccc(F)cc1)c1nc(N2CCCCS2(=O)=O)c2cccnc2c1O |  |  |  | Activity [10]: 3%; Activity [11]: 1.3%; Activity [12]: 10%; Activity [13]: 12%; Activity [14]: 9% |
| CN(C)C(C)(C)c1nc(O)c(O)c(C(=O)NCc2ccc(F)cc2)n1 |  | 0.078 | 0.06 |  |
| COc1cccc(CNC(=O)c2nc(C(C)(C)NC(=O)C(=O)N(C)C)n(C)c(=O)c2O)c1OC | 21 | > 1 | 1 |  |
| CN1CCN(C(=O)C(=O)NC(C)(C)c2nc(C(=O)NCc3ccc(F)cc3)c(O)c(=O)n2C)CC1 | 26 | 0.25 | 0.125 |  |
| CN1CCOCC1c1nc(C(=O)NCc2ccc(F)cc2)c(O)c(=O)n1C (stereo not given) |  | 0.1 | 0.06 |  |
| Cn1c(C(C)(C)N2CCOCC2)nc(C(=O)NCc2ccc(F)cc2)c(O)c1=O | 3 | 0.5 | 0.065 |  |
| O=C(/C=C(\O)c1nc[nH]n1)c1ccc(Cc2ccc(F)cc2)o1 [S-1360] |  |  |  | Activity [10]: 20%; Activity [11]: 50%; Activity [12]: >50%; Activity [13]: 50%; Activity [14]: 100% |

Continued, in another order:

| IC50 [1] [nM] | SMILES | IC95 [2] [µM] | IC95 [3] [µM] | further results |
| --- | --- | --- | --- | --- |
| 6 | Cn1c(C(C)(C)NC(=O)c2c[nH]cn2)nc(C(=O)NCc2ccc(F)cc2)c(O)c1=O | 0.25 | 0.25 |  |
| 12 | CN(C)S(=O)(=O)NC(C)(C)c1nc(C(=O)NCc2ccc(F)cc2)c(O)c(=O)n1C | 0.5 | 0.125 |  |
| 4 | Cn1c(C(C)(C)NC(=O)C(=O)O)nc(C(=O)NCc2ccc(F)cc2)c(O)c1=O | 1 | 0.25 |  |
| 8 | Cn1c(C(C)(C)NC(=O)c2cscn2)nc(C(=O)NCc2ccc(F)cc2)c(O)c1=O | 0.312 | < 0.078 |  |
| 15 | COC(=O)C(=O)NC(C)(C)c1nc(C(=O)NCc2ccc(F)cc2)c(O)c(=O)n1C | > 1 | 1 |  |
